SMILES strings stand for the structures.

Test [1] has as its target T1, recombinant human ALK5 (TGF-βR1) protein (Homo sapiens, UniProt P36897).
T1 construct: purchased Life Technologies PR9075A
T1 sequence (P36897 34-503): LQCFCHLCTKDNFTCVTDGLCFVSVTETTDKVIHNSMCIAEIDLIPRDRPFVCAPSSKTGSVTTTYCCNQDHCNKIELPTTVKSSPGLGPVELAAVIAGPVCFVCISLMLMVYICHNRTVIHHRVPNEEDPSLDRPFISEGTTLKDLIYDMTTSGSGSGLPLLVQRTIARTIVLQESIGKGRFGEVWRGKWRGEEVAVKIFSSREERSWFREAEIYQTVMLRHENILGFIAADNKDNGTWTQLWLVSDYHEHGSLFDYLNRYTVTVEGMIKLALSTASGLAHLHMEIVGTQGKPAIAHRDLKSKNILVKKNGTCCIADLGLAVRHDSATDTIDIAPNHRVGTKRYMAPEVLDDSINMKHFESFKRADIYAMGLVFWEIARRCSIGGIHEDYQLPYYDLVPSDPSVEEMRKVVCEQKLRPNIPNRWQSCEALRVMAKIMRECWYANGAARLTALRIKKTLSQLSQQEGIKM
The experiment in a line: Biochemical ALK5 (TGF-βR1) assay to measure pKi (LANCE Ultra ULight kinase assay). The following applies: apparent pKi from pIC50 by Cheng-Prusoff, read-out: ALK5 pKi (converted). The method, boiled down:
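Compounds (10 μM to 25 pM) preincubated 60 minutes at room temperature with enzyme, then reaction run 60 minutes at 37° C with ATP added as 125 μM (5× final). Stopped with EDTA plus Eu-anti-phospho-Topoisomerase 2-alpha (Thr1342) antibody, TR-FRET read at 665 nm; pIC50 converted to pKi via Cheng-Prusoff.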

In test [2] the test system is TGF-β-stimulated SMAD3 phosphorylation in BEAS-2B cells. Description: Cellular ALK5 potency assay, inhibition of TGF-β stimulated pSMAD3 formation in BEAS-2B cells. In kind it is cell-based. Conditions: Homo sapiens; inhibition of TGF-β stimulated pSMAD3 formation, BEAS-2B cells; read-out: BEAS2B pIC50 (converted). An outline of the steps:
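pSMAD3 was quantified by AlphaLISA in BEAS-2B lysates after 10 ng/mL TGF-β (final) for 30 min. Before stimulation, cells received compound for 1 h at 37° C in supplemented HBSS. Values are pIC50, relative to TGF-β-stimulated cells without compound.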

For the compound `Cc1cccc(-c2[nH]cnc2-c2ccc3ncc(C(=O)OC[C@@H]4CCCCN4)cc3c2)n1` [Compound 883, (S)-piperidin-2-ylmethyl 6-(5-(6-methylpyridin-2-yl)-1H-imidazol-4-yl)quinoline-3-carboxylate], the Ki in test [1] was 0.398 to 3.16 nM. For the same compound, the IC50 in test [2] was 25.1 to 158 nM.
As to `Cc1nc(-c2n[nH]cc2-c2ccc3ncc(-c4cn5c(n4)CNCC5)cc3n2)ccc1F` [Compound 422, 2-[3-(5-fluoro-6-methyl-2-pyridyl)-1H-pyrazol-4-yl]-7-(5,6,7,8-tetrahydroimidazo[1,2-a]pyrazin-2-yl)-1,5-naphthyridine], the Ki in test [1] was below 0.0316 nM. For the same compound, the IC50 in test [2] was 25.1 to 158 nM.
For `Cc1cccc(-c2n[nH]cc2-c2ccc3ncc(NCCN4C(C)CNCC4C)cc3n2)n1` (centres unmarked) [Compound 183, N-[2-(2,6-dimethylpiperazin-1-yl)ethyl]-6-[3-(6-methyl-2-pyridyl)-1H-pyrazol-4-yl]-1,5-naphthyridin-3-amine] the same measures were 0.0398 to 0.316 nM and 200 to 1260 nM.
Turning to `Cc1cccc(-c2[nH]cnc2-c2ccc3ncc(-c4cn5c(n4)CNCC5)cc3n2)n1` [Compound 414, 2-(5-(6-methylpyridin-2-yl)-1H-imidazol-4-yl)-7-(5,6,7,8-tetrahydroimidazo[1,2-a]pyrazin-2-yl)-1,5-naphthyridine], the Ki in test [1] was 0.0398 to 0.316 nM. Besides, the IC50 in test [2] was 25.1 to 158 nM.
Turning to `Cc1cccc(-c2[nH]cnc2-c2ccc3ncc(-c4cncc(C(=O)O[C@H]5CCNC5)c4)cc3c2)n1` [Compound 719, [(3S)-pyrrolidin-3-yl] 5-[6-[5-(6-methyl-2-pyridyl)-1H-imidazol-4-yl]-3-quinolyl]pyridine-3-carboxylate], the Ki in test [1] was 0.0398 to 0.316 nM. Further, the IC50 in test [2] is 200 to 1260 nM.
Consider `Cc1cccc(-c2[nH]cnc2-c2ccc3ncc(-c4csc(C(=O)OCC5CNC5)c4)cc3c2)n1` [Compound 753, azetidin-3-ylmethyl 4-(6-(5-(6-methylpyridin-2-yl)-1H-imidazol-4-yl)quinolin-3-yl)thiophene-2-carboxylate], for which, in test [1], the Ki is 0.0398 to 0.316 nM. The IC50 in test [2] was 25.1 to 158 nM.
In the case of `Cc1cccc(-c2n[nH]cc2-c2ccc3ncc(N4CCC(N5CCOCC5)CC4)cc3n2)n1` [Compound 250, 4-[1-[6-[3-(6-methyl-2-pyridyl)-1H-pyrazol-4-yl]-1,5-naphthyridin-3-yl]-4-piperidyl]morpholine], the Ki in test [1] was below 0.0316 nM. Besides, the IC50 in test [2] was 25.1 to 158 nM.
`Cc1cccc(-c2n[nH]cc2-c2ccc3ncc(-c4nnn5c4CNCC5)cc3n2)n1` [Compound 130, 2-[3-(6-methyl-2-pyridyl)-1H-pyrazol-4-yl]-7-(4,5,6,7-tetrahydrotriazolo[1,5-a]pyrazin-3-yl)-1,5-naphthyridine]: the Ki in test [1] is 0.0398 to 0.316 nM. Besides, in test [2], the IC50 is 25.1 to 158 nM.
Consider `Cc1cccc(-c2n[nH]cc2-c2ccc3ncc(NCCN4CCN(C(C)C)CC4)cc3n2)n1` [Compound 478, N-[2-(4-isopropylpiperazin-1-yl)ethyl]-6-[3-(6-methyl-2-pyridyl)-1H-pyrazol-4-yl]-1,5-naphthyridin-3-amine], for which, in test [1], the Ki is below 0.0316 nM. In addition, the IC50 in test [2] was 25.1 to 158 nM.
Consider `Cc1cccc(-c2[nH]cnc2-c2ccc3ncc(N(C)CC4CNC4)cc3c2)n1` [Compound 6, N-(azetidin-3-ylmethyl)-N-methyl-6-[5-(6-methyl-2-pyridyl)-1H-imidazol-4-yl]quinolin-3-amine], for which, in test [1], the Ki was 0.0398 to 0.316 nM. In addition, in test [2], the IC50 is 25.1 to 158 nM.
For `Cc1cccc(-c2[nH]cnc2-c2ccc3ncc(C4=CCC(N)CC4)cc3n2)n1` (centres unmarked) [Compound 149, 4-[6-[5-(6-methyl-2-pyridyl)-1H-imidazol-4-yl]-1,5-naphthyridin-3-yl]cyclohex-3-en-1-amine], the Ki in test [1] was below 0.0316 nM. Further, the IC50 in test [2] is 25.1 to 158 nM.
For `Cc1cccc(-c2n[nH]cc2-c2ccc3nccc(-c4cn(-c5ccccc5)nn4)c3n2)n1` [Compound 854, 2-[3-(6-methyl-2-pyridyl)-1H-pyrazol-4-yl]-8-(1-phenyltriazol-4-yl)-1,5-naphthyridine] the same measures were 0.0398 to 0.316 nM and 25.1 to 158 nM.
For `Cc1cccc(-c2nc3ccccn3c2-c2ccc3ncc(-c4cn[nH]c4)cc3c2)n1` [Compound 592, 6-[2-(6-methyl-2-pyridyl)imidazo[1,2-a]pyridin-3-yl]-3-(1H-pyrazol-4-yl)quinoline] the same measures were below 0.0316 nM and below 20 nM.
With `Cc1cccc(-c2[nH]cnc2-c2ccc3ncc(C4=CCN(Cc5ccccc5)C4)cc3c2)n1` [Compound 232, 3-(1-benzyl-2,5-dihydropyrrol-3-yl)-6-[5-(6-methyl-2-pyridyl)-1H-imidazol-4-yl]quinoline], the Ki in test [1] is below 0.0316 nM. Moreover, the IC50 in test [2] is 25.1 to 158 nM.
For `Cc1cccc(-c2n[nH]cc2-c2ccc3ncc(N4CCCCC4)cc3n2)n1` [Compound 22, 2-[3-(6-methyl-2-pyridyl)-1H-pyrazol-4-yl]-7-(1-piperidyl)-1,5-naphthyridine] the same measures were 0.0398 to 0.316 nM and 25.1 to 158 nM.
Take `CNCCn1cc(-c2cnc3ccc(-c4c(-c5cccc(C)n5)nnn4CC(=O)O)nc3c2)cn1` [Compound 630, 2-[5-[7-[1-[2-(methylamino)ethyl]pyrazol-4-yl]-1,5-naphthyridin-2-yl]-4-(6-methyl-2-pyridyl)triazol-1-yl]acetic acid]: the Ki in test [1] is 0.398 to 3.16 nM. Also, in test [2], the IC50 was 1580 to 10000 nM.
Take `Cc1cccc(-c2[nH]cnc2-c2ccc3ncc(N4CCN[C@H](C(=O)O)C4)cc3c2)n1` [Compound 682, (2S)-4-[6-[5-(6-methyl-2-pyridyl)-1H-imidazol-4-yl]-3-quinolyl]piperazine-2-carboxylic acid]: the Ki in test [1] is 0.398 to 3.16 nM. Moreover, in test [2], the IC50 is 200 to 1260 nM.
Turning to `CNc1ccnc2ccc(-c3c[nH]nc3-c3cccc(C)n3)nc12` [Compound 838, N-methyl-6-[3-(6-methyl-2-pyridyl)-1H-pyrazol-4-yl]-1,5-naphthyridin-4-amine], the Ki in test [1] is 0.398 to 3.16 nM. The IC50 in test [2] was 25.1 to 158 nM.
On to `CNC(=O)[C@H]1CN(c2cnc3ccc(-c4nc[nH]c4-c4cccc(C)n4)cc3c2)CCN1` [Compound 376, (2R)-N-methyl-4-[6-[5-(6-methyl-2-pyridyl)-1H-imidazol-4-yl]-3-quinolyl]piperazine-2-carboxamide], for which the Ki in test [1] is 0.0398 to 0.316 nM. In test [2], the IC50 is 200 to 1260 nM.
As for `Cc1cccc(-c2n[nH]cc2-c2ccc3ncc(N(C)CCCN4CCOCC4)cc3n2)n1` [Compound 506, N-methyl-6-[3-(6-methyl-2-pyridyl)-1H-pyrazol-4-yl]-N-(3-morpholinopropyl)-1,5-naphthyridin-3-amine], the Ki in test [1] is 0.0398 to 0.316 nM. The IC50 in test [2] is 25.1 to 158 nM.
With `Cc1cccc(-c2[nH]cnc2-c2ccc3ncc(NCC4CNC4)cc3c2)n1` [Compound 11, N-(azetidin-3-ylmethyl)-6-[5-(6-methyl-2-pyridyl)-1H-imidazol-4-yl]quinolin-3-amine], in test [1], the Ki was 0.0398 to 0.316 nM. Further, the IC50 in test [2] is 25.1 to 158 nM.
Turning to `Cc1cccc(-c2n[nH]cc2-c2ccc3ncc(N4CCC(N(C)C)C4)cc3n2)n1` (racemic) [Compound 505, rac-(3S)-N,N-dimethyl-1-[6-[3-(6-methyl-2-pyridyl)-1H-pyrazol-4-yl]-1,5-naphthyridin-3-yl]pyrrolidin-3-amine], the Ki in test [1] is below 0.0316 nM. Also, the IC50 in test [2] is 25.1 to 158 nM.

These data come from patent publication US11590116B2 (THERAVANCE BIOPHARMA R&D IP, LLC, priority 2019, dated 2023).
